Source: patent publication US12622892B2, “Methods for treating endometriosis” (THE TEXAS A&M UNIVERSITY SYSTEM, priority 2020, dated 2026)

Assays:
ESECT-40 cells = experiment: Annexin V staining, ESECT-40; assay type: cell-based, human; settings: 10 μM DIM-C-pPhOH-3-Cl-5-OCH3, 25 μM DIM-C-pPhOH, FIG. 3B
Description: (§1) Annexin V staining: ESECT-7 and ESECT-40 cells were seeded in Nunc chambered cover glass followed by various drug treatments. The cells were then washed with ice-cold PBS, and 5 μL Alexa Fluor® 488 Annexin V with 100 μg/mL PI (as per the manufacturer's instructions) were added to the cells and incubated for 15 min, and the cells were observed using a Zeiss confocal fluorescence microscope.

NEM cells [1] = experiment: Cell growth, normal endometrial NEM cells; assay type: cell-based, human; settings: 24 hr; 15-25 μM DIM-C-pPhOH, 5-10 μM DIM-C-pPhOH-3-Cl-5-OCH3; vs DMSO control; FIG. 4A
Description: Primary human endometriotic stromal cells from endometriosis patients: Ovarian endometrioma were isolated from endometriosis patients in the proliferative phase following the IRB-approved protocol. Isolated ectopic lesions were digested with collagenase type 3 (300 μg/ml) and DNaseI (40 μg/ml) for 90 min at 37° C., and then tissues were filtered through 150, 100, and 40 μm sieves to isolate endometrial stromal cells. The collected endometrial stromal cells were cultured in DMEM/F12 with 10% FBS plus 1× antibiotic/antimycotic solution and then validated by flow cytometry with a CD90 antibody (a mesenchymal marker). Henceforth, we refer to the stromal cells as ectopic endometrium isolated ovarian endometrioma (ESECT). As the control, primary normal endometrial stromal cells isolated from the biopsy of the eutopic endometrium of normal women (NEM) in the proliferative phase. All cells were incubated at 37° C. in CO2 incubator in an atmosphere of humidified 5% CO2 and 95% air.
Cell proliferation assay: Patient-derived endometriotic cells ESECT-7 and ESECT-40 were seeded into a 96-well plate, and the cells were then treated for 24 hr with either DMSO or different concentrations of DIM-C-pPhOH and DIM-C-pPhOH-3-Cl-5-OCH3. […] Dimethyl sulfoxide (DMSO) was added and incubated at […] for 10 min, and absorbance was measured at 570 nm.

ESECT-7 cells [2] = experiment: Quantitative real-time PCR of fibrosis markers, ESECT-7; assay type: cell-based, human; settings: 24 hours, 20-25 μM DIM-C-pPhOH, 5-10 μM DIM-C-pPhOH-3-Cl-5-OCH3, vs DMSO control, FIG. 5C
Description: Quantitative real-time PCR: Total RNA was isolated from cultured cells according to the manufacturer's instructions (Zymo Research, Irvine, CA). The concentration and purity of the RNA samples were determined using a nanodrop spectrophotometer. Total RNA was reverse transcribed using iTaq Universal SYBR Green One-Step Kit (Thermo Fisher Scientific, Grand Island, NY) using the manufacturer's protocol with the CFX384 real-time PCR System (Bio-Rad). The comparative cycle threshold method was used for relative quantitation of samples. Values for each gene were normalized to expression levels of TATA-binding protein. The sequences of the primers used for real-time PCR included the following: α-SMA, 5′-GGCCGAGATCTCACTGACTAC-3′ (sense, SEQ ID NO. 13) and 5′-TTC ATG GAT GCC AGC AGA-3′ (antisense, SEQ ID NO. 14); COL1A1, 5′-CAG CCG CTT CAC CTA CAG C-3′ (sense, SEQ ID NO. 15) and 5′-TTTTGTATTCAATCAGTGTCTTGCC-3′ (antisense, SEQ ID NO. 16); CTGF, 5′-TTGGCCCAGACCCAACTATG-3′(sense, SEQ ID NO. 17) and 5′-CAGGAGGCGTTGTCATTGGT-3′ (antisense, SEQ ID NO. 18); FN, 5′-GGG AGC CTC GAA GAG C-3′ (sense 19) and 5′-AACAAGTACAAACCAACGCA-3′ (antisense, SEQ ID NO. 20) and TATA-binding protein, 5′-GATCAGAACAACAGCCTGCC-3′ (sense, SEQ ID NO. 21) and 5′-TTCTGAATAGGCTGTGGGGT-3′ […].

human ectopic lesions = experiment: Endometriosis mouse model by hetero-transplantation with human endometrial cells in SCID mice; assay type: in vivo; settings: SCID mice with HECs carrying luciferase; 25 mg/kg once a day, 30 days; p=0.022; FIGS. 9B, 9C
Source text: Endometriosis Mouse Model by Hetero-transplantation with immortalized human endometrial cells: The luciferase stable immortalized human endometrial epithelial cells […] and luciferase stable immortalized human endometrial stromal cells (LIHESCs) were generated from IHESCs isolated from endometria obtained from hysterectomies for benign conditions and IHEECs generated from ovarian endometrioma by transducing lentivirus-expressing luciferase and then the expression of luciferase was validated with the luciferase activity assay. Matrigel contained the mixture of LIHESCs (1×10^6 cells) and LIHEECs (1×10^6 cells) were injected into the peritoneal cavity of female severe combined immune deficiency (SCID) mice (6 weeks old) to induce endometriosis. Henceforth, we refer to the mixture of LIHEECs and LIHESCs as human endometrial cells (HEC). […] To noninvasively determine the progression of human ectopic lesions, we injected mice with 150 mg/kg of D-Luciferin intra-peritoneally 5 min before imaging, and then determined luciferase activities of human ectopic lesions in mice using In Vivo Image System.

NEM cells [3] = experiment: Annexin V staining, NEM cells; assay type: cell-based, human; settings: 25 μM DIM-C-pPhOH, 10 μM DIM-C-pPhOH-3-Cl-5-OCH3, vs DMSO control, FIG. 4C
ESECT-7 cells [4] = experiment: Annexin V staining, ESECT-7; assay type: cell-based, human; settings: 10 μM DIM-C-pPhOH-3-Cl-5-OCH3, 25 μM DIM-C-pPhOH, FIG. 3A
Description: as §1

Source text for mouse ectopic lesions: Endometriosis Mouse Model with Auto-transplantation: One uterine horn was isolated from a female mouse (6 weeks old, C57BL/6J) under anesthesia, and then the uterine horn was longitudinally cut. Using a 2-mm dermal biopsy punch, one endometrial fragment was obtained from the isolated uterus and subsequently sutured to the mesenteric membrane attached to the intestine of the same mouse. The abdominal incision then was closed by suture. Before harvesting ectopic lesions, the mouse estrous cycle was determined using vaginal cytology. At the estrus stage in the 3rd week after endometriosis induction, ectopic lesions were isolated from mice with endometriosis. As the endometriosis control, uteri were isolated from C57BL/6J female mice without endometriosis at the estrus stage at 10 weeks of age.
Endometriosis Treatment with C-DIM: Endometriosis was induced to mice with auto- and hetero-transplantation method as described above. […] In the case of the auto-transplantation model, we isolated mouse ectopic lesions treated with C-DIM versus the vehicle from mice with endometriosis at the estrus stage in the 3rd week after drug treatment and then determined their volume. In the case of the hetero-transplantation model, we determined the luciferase activity of the human ectopic lesions treated with C-DIM versus vehicle in SCID mice with endometriosis during the drug treatment.

Compound: COc1cc(C(c2c[nH]c3ccccc23)c2c[nH]c3ccccc23)cc(Cl)c1O [DIM-C-pPhOH-3-Cl-5-OCH3]
- Annexin V staining (apoptosis) (ESECT-40 cells): significantly induced
- growth of normal endometrial NEM cells (NEM cells [1]): did not suppress the growth
- reduction of the volume of ectopic lesions compared to the vehicle (mouse ectopic lesions; 25 mg/kg every day, intraperitoneal, three weeks, p=0.015, FIG. 8D): 2.4 fold
- bodyweight of mice as compared to the vehicle (mouse ectopic lesions; mouse, in vivo): did not change
- mRNA levels of fibrosis markers (FN, Col1A1, CTGF) (ESECT-7 cells [2]): decreased mRNA levels
- reduction of luciferase activity in human ectopic lesions compared with the vehicle (human ectopic lesions): 13.4 fold
- Annexin V staining (NEM cells [3]): did not enhance
- Annexin V staining (apoptosis) (ESECT-7 cells [4]): significantly induced
